A short description of series [1]: Plasma metabolic stability assay (human plasma). To be noted: for half-life at 5 μM: human, plasma; for plasma stability (in words): summary of Table 1, 'in each group'.
Protocol: (§3) DMSO was used as a diluent to prepare stock solutions of a test substance and a positive control at a concentration of 10 mM. The positive control stock solution was then diluted with 70% acetonitrile to a working concentration of 0.2 mM, and then the test substance stock solution was diluted with 70% acetonitrile to a working concentration of 1 mM. A quench reagent consisted of acetonitrile containing tolbutamide and propranolol (provided as an internal standard).
(§4) Positive control and test substance working solutions were spiked into plasma at a concentration of 1 μM and 5 μM, respectively. A 0-min sample was prepared by adding an 80 μL aliquot of each incubation mixture to 320 μL of the quench reagent to precipitate proteins. The mixture was incubated in a water bath at 37° C. with gentle shaking. Aliquots of 80 μL of each mixture were removed and placed in a clean 96-well plate containing 320 μL of the quench reagent to precipitate proteins at 15, 30, 45, and 60 min and centrifuged (5000×g, 15 minutes). 100 μL of the supernatant was placed in a 96-well assay plate to which 200 μL of ultrapure water had been added in advance, and analyzed by LC-MS/MS.
A short description of series [2]: Plasma metabolic stability assay (mouse plasma).
Protocol: as §3, §4
For series [3] the following is noted: plasma.
Protocol: as §3, §4
For series [4] the following is noted: plasma. This is another data set of the same source.
Protocol: as §3, §4
Series [5] deals with Huh-7 cells, hepatocellular carcinoma cell line. Nature of the series: Anticancer efficacy in mouse model transplanted with Huh-7 cells. The conditions noted are these: Huh-7 xenograft; for changes in cancer growth: 20 mg/kg oral (SNS-032 intraperitoneal), five times a week for two weeks, compared to Y102 and SNS-032 groups; for weight of the extracted cancer: day 14. The class given is in vivo, nude mice. Here is the method: To evaluate in vivo efficacy, 1×10^7 Huh-7 cells were transplanted into the right calves of nude mice to form cancer tissue, and then the anticancer efficacy of the new compositions Y106 and Y108 was compared with that of an existing CDK inhibitor Y102 or SNS-032.
The dose was the same for all mice (20 mg/kg), the vehicle, Y102, Y106, and Y108 were administered orally, and only SNS-032 was administered intraperitoneally. These were administered five times a week for two weeks, the size was measured twice a week using calipers to measure the changes in cancer growth and the mouse body weight for 14 days, and on day 14, the cancer tissue was removed to confirm the size and weight thereof.

A further series has as its system Hep3B cells. In words: Cell colony forming assay, Hep3B. The class given is cell-based. To be noted: 1 μM and 3 μM for 12 hours, 7 to 14 days, compared to Y102 or SNS-032. Here is the method: (§1) To examine the anticancer efficacy of Y106 and Y108 in vitro, a cell colony formation assay was performed in hepatocellular carcinoma cell lines Huh-7 and Hep3B cells.
(§2) 500 cells were seeded into 6-well plates, and then treated with Y102, Y106,Y108, or SNS-032 at 1 μM and 3 μM for 12 hours, the medium was then replaced with fresh medium, and after 7 to 14 days, the cells were stained with 20% methanol+0.5% Crystal Violet for colony staining, and the number of cells was counted for quantitative analysis.

The subject of another series is Huh-7 cells. In words: Cell colony forming assay, Huh-7. The format is cell-based. To be noted: Huh-7, 1 μM and 3 μM for 12 hours, 7 to 14 days; compared to Y102 or SNS-032. Here is the method: as §1, §2
For series [6], the system named is A549 cells, non-small cell lung cancer cell line. In words: Anticancer efficacy in mouse model transplanted with A549 cells. To be noted: A549 xenograft; for changes in cancer growth: 20 mg/kg oral (SNS-032 intraperitoneal), administered for five days, compared to Y102 and SNS-032 groups; for changes in cancer growth / changes in mouse body weight: 25 days; for changes in mouse body weight / weight of the extracted cancer: 20 mg/kg; for weight of the extracted cancer: day 25. The format is in vivo, nude mice. The protocol:
To evaluate in vivo efficacy in a mouse model transplanted with A549 cells, a non-small cell lung cancer cell line, 1×10^6 A549 cells were transplanted into the right calves of nude mice to form cancer tissue, and then the anticancer efficacy of the new compositions Y106 and Y108 was compared with that of an existing CDK inhibitor Y102 or SNS-032.
The dose was the same for all mice (20 mg/kg), the vehicle, Y102, Y106, and Y108 were administered orally, and only SNS-032 was administered intraperitoneally. These were administered for five days, the size was measured twice a week using calipers to measure the changes in cancer growth and the mouse body weight for 25 days, and on day 25, the cancer tissue was removed to confirm the size and weight thereof.

Series [7] deals with Hep3B cells, hepatocellular carcinoma cell line. Nature of the series: Anticancer efficacy in mouse model transplanted with Hep3B cells. The format is in vivo, nude mice. To be noted: Hep3B xenograft; for changes in cancer growth: 20 mg/kg oral (SNS-032 intraperitoneal), compared to Y102 and SNS-032 groups; for changes in cancer growth / changes in mouse body weight: 27 days; for changes in mouse body weight / weight of the extracted cancer: 20 mg/kg; for weight of the extracted cancer: day 27. From the text:
To evaluate in vivo efficacy using Hep3B cells, another hepatocellular carcinoma cell line, 3×10^6 Hep3B cells were transplanted into the right calves of nude mice to form cancer tissue, and then the anticancer efficacy of the new compositions Y106 and Y108 was compared with that of an existing CDK inhibitor Y102 or SNS-032.
The dosage, administration schedule, and administration route were applied in the same manner as in the method performed in the mouse model transplanted with Huh-7 cells in Example 3. After administration of the new compositions and the existing CDK inhibitors, changes in cancer growth and mouse body weight were measured for 27 days, and then on day 27, the cancer tissues were removed to confirm the size and weight thereof.

Turning to `NC(=O)c1c(Br)nc2n([C@H]3O[C@@H](COC(=O)C45CC6CC(CC(C6)C4)C5)C(O)[C@H]3O)cnc(N)c1-2` (stereo partly drawn) [Compound Y109, ((2S,3S,4S,5S)-5-(4-amino-6-bromo-5-carbamoyl-1H-pyrrolo[2,3-d]pyrimidin-1-yl)-3,4-dihydroxytetrahydrofuran-2-yl)methyl(3S,5S,7S)-adamantane-1-carboxylate], the half-life at 5 μM in series [1] worked out at 280 ± 3.06 min; in [2], 7.77 ± 0.13 min.
For Ibulocydine, in series [3], the “T1/2(min) Mouse” value worked out at 2.85 ± 0.02 min. Further, the “T1/2(min) Human” value in series [4] is listed as 4.57 ± 0.09 min.
With `CC1CC(OC(=O)C(O)c2ccccc2)CC(C)(C)N1C` (stereo not drawn) [Eucatropin, reference compound], the values for the half-life at 5 μM in series [1] and in [2] were 16.7 ± 0.38 min and 32.6 ± 4.81 min, respectively.
For `CCC(C)(C)C(=O)OC[C@@H]1O[C@H](n2cnc(N)c3c(C(N)=O)c(Br)nc2-3)[C@@H](O)[C@@H]1O` [Compound Y107, ((2S,3S,4S,5S)-5-(4-amino-6-bromo-5-carbamoyl-1H-pyrrolo[2,3-d]pyrimidin-1-yl)-3,4-dihydroxytetrahydrofuran-2-yl)methyl 2,2-dimethylbutanoate], in that order: 26.6 ± 4.33 min and 6.91 ± 0.11 min.
As to `CC(C)C(=O)OC[C@@H]1O[C@H](n2cnc(N)c3c(C(N)=O)c(Br)nc2-3)[C@@H](O)[C@@H]1OC(=O)C(C)C` [Compound Y105, (2S,3S,4S,5S)-5-(4-amino-6-bromo-5-carbamoyl-1H-pyrrolo[2,3-d]pyrimidin-1-yl)-4-hydroxy-2-((isobutyryloxy)methyl)tetrahydrofuran-3-yl isobutyrate], the half-life at 5 μM in [1] came to 20.5 ± 0.34 min; in series [2], 2.67 ± 0.2 min.
For `CCC(C)(C)C(=O)OC[C@@H]1O[C@H](n2cnc(N)c3c(C(N)=O)c(Br)nc2-3)[C@@H](O)[C@@H]1OC(=O)C(C)(C)CC` [Compound Y106, (2S,3S,4S,5S)-5-(4-amino-6-bromo-5-carbamoyl-1H-pyrrolo[2,3-d]pyrimidin-1-yl)-2-(((2,2-dimethylbutanoyl)oxy)methyl)-4-hydroxytetrahydrofuran-3-yl 2,2-dimethylbutanoate], the half-life at 5 μM in series [1] is over 720 min; in series [2] it was 7.1 ± 0.07 min. Besides, the “plasma stability (in words)” value in series [1] is listed as “highest stability”. The “changes in cancer growth” value was “significantly inhibited cancer growth” in [5] (14 days), “inhibited cancer growth more clearly” in series [6] and “inhibited cancer growth more effectively” in [7]. Further, the “weight of the extracted cancer” value in [5] (20 mg/kg), in series [6] and in series [7] was “least amount of cancer tissue” throughout. In addition, the colony formation entry with Hep3B cells and with Huh-7 cells was “remarkably reduced” throughout. For the same molecule, the “changes in mouse body weight” value in [6] and in series [7] was “no significant difference” in each case.
On to `CC(C)(C)C(=O)OC[C@@H]1O[C@H](n2cnc(N)c3c(C(N)=O)c(Br)nc2-3)[C@@H](O)[C@@H]1OC(=O)C(C)(C)C` [Compound Y108, (2S,3S,4S,5S)-5-(4-amino-6-bromo-5-carbamoyl-1H-pyrrolo[2,3-d]pyrimidin-1-yl)-4-hydroxy-2-((pivaloyloxy)methyl)tetrahydrofuran-3-yl pivalate], for which the half-life at 5 μM in [1] amounted to 700 ± 42.5 min; in [2], 7.25 ± 0.01 min. For the same molecule, in series [1], the “plasma stability (in words)” value is given as “highest stability”. The “changes in cancer growth” value was “significantly inhibited cancer growth” in series [5] (14 days), “inhibited cancer growth more clearly” in [6] and “inhibited cancer growth more effectively” in series [7]. Further, the “weight of the extracted cancer” value in series [5] (20 mg/kg), in [6] and in series [7] was “least amount of cancer tissue” each time. The colony formation result in the series on Hep3B cells and in the series with Huh-7 cells was “remarkably reduced” each time. Besides, the “changes in mouse body weight” value in series [6] and in series [7] was “no significant difference” each time.
In the case of `CC(C)(C)c1cnc(CSc2cnc(NC(=O)C3CCNCC3)s2)o1` [SNS-032, reference compound], the mouse body weight result in [5] (20 mg/kg, 14 days) is on record as “slightly reduced”. Further, the “changes in mouse body weight” value in series [6] and in series [7] was “no significant difference” each time.

Source of the values: patent publication US20250313588A1, “NOVEL PYRROLOPYRIMIDINONE CARBOXAMIDE COMPOUND FOR INHIBITING CDK, STEREOISOMER THEREOF OR PHARMACEUTICALLY ACCEPTABLE SALT THEREOF, AND PHARMACEUTICAL COMPOSITION FOR TREATING CANCER, COMPRISING SAME AS ACTIVE INGREDIENT” (Seoul National University R&DB Foundation, priority 2022, published 2025).
